# Results taken from publication PMC8757608 (Journal of Enzyme Inhibition and Medicinal Chemistry, 2022).
# Where two headings read alike, the source gives them in different places.
# Assays:
# MCF7 cell lines = assay: DNA-flow cytometry cell cycle analysis, MCF7; type: cell-based, human; settings: MCF7, 24 h at IC50
# full NCI 60-cell panel = assay: NCI-60 single dose screen, statements over several cell lines; type: cell-based, human; settings: for inhibition at 10 µM: Homo sapiens
# MCF-7 cells = assay: Annexin V-FITC apoptosis assay, MCF-7; type: cell-based, human; settings: MCF-7 cells exposed to IC50, 24 h; for percentage of annexin V-FITC positive apoptotic cells (UR + LR): vehicle control 2.0%
# DU-145 cell lines = assay: DNA-flow cytometry cell cycle analysis, DU-145; type: cell-based, human; settings: DU-145, 24 h at IC50
# [1] = system: NCI-H522 (non-small cell lung cancer); assay: NCI-60 single dose screen, NCI-H522; type: cell-based; settings: Homo sapiens, NCI-H522, read-out: inhibitory activity (cell growth inhibition)
# DU-145 cells = assay: Annexin V-FITC apoptosis assay, DU-145; type: cell-based, human; settings: DU-145 cells exposed to IC50, 24 h; for percent of annexin V-FITC positive apoptotic cells (UR + LR): vehicle control 1.7%
# [2] = system: MCF-7 breast cancer cell line; assay: MTT assay for cell viability, MCF7; type: cell-based; settings: Homo sapiens, MCF7, read-out: Cytotoxicity IC50 (µM ± SE) MCF7, MTT assay, MCF7
# LOX IMVI (melanoma) = assay: NCI-60 single dose screen, LOX IMVI; type: cell-based; settings: Homo sapiens, read-out: percent growth inhibition
# MCF7 (breast cancer) = assay: NCI-60 single dose screen, MCF7; type: cell-based; settings: Homo sapiens, MCF7, read-out: percent growth inhibition
# IGROV1 (ovarian cancer) = assay: NCI-60 single dose screen, IGROV1; type: cell-based; settings: Homo sapiens, IGROV-1, read-out: percent growth inhibition
# DU-145 (prostate cancer) = assay: NCI-60 single dose screen, DU-145; type: cell-based; settings: Homo sapiens, DU-145, read-out: percent growth inhibition
# SR (leukemia) = assay: NCI-60 single dose screen, SR; type: cell-based; settings: Homo sapiens, read-out: percent growth inhibition
# [3] = 60 cell, read-out: cell growth inhibition
smiles,measurement,setting,value
"O=c1ccn(Cc2cn(-c3c4ccccc4nc4ccccc34)nn2)c(=O)[nH]1 [Compound 9, 1-((1-(Acridin-9-yl)-1H-1,2,3-triazol-4-yl)methyl)pyrimidine-2,4(1H,3H)–dione]",%G2/M,MCF7 cell lines,39.8%
same,inhibition at 10 µM,full NCI 60-cell panel; [3],61 to 97%
same,inhibition at 10 µM,full NCI 60-cell panel; read-out: cell growth inhibition,61.3 to 67%
same,increase of annexin V-FITC positive apoptotic cells compared with vehicle control,MCF-7 cells,6.4 fold
same,percentage of annexin V-FITC positive apoptotic cells (UR + LR),MCF-7 cells,13%
same,%G1,DU-145 cell lines,41.5%
same,%G2/M,DU-145 cell lines,29.1%
"O=C1NC(c2ccccc2)(c2ccccc2)C(=O)N1Cc1cn(-c2c3ccccc3nc3ccccc23)nn1 [Compound 10, 3-((1-(Acridin-9-yl)-1H-1,2,3-triazol-4-yl)methyl)-5,5-diphenylimidazolidine-2,4-dione]",%G1,MCF7 cell lines,43.5%
same,%G2/M,MCF7 cell lines,15.3%
same,%Pre-G1,MCF7 cell lines,13.2%
same,inhibition at 10 µM,[1],84.1%
same,rise of annexin V-FITC positive apoptotic cells compared with vehicle control,DU-145 cells,2 fold
same,percent of annexin V-FITC positive apoptotic cells (UR + LR),DU-145 cells,3.6%
same,inhibition at 10 µM,full NCI 60-cell panel; [3],61 to 97%
same,inhibition at 10 µM,full NCI 60-cell panel; read-out: cell growth inhibition percent,60.8 to 68.6%
same,increase of annexin V-FITC positive apoptotic cells compared with vehicle control,MCF-7 cells,5.3 fold
same,percentage of annexin V-FITC positive apoptotic cells (UR + LR),MCF-7 cells,10.7%
same,%G1,DU-145 cell lines,42.9%
same,%G2/M,DU-145 cell lines,20.9%
"CCCC(CCC)C(=O)OCc1cn(-c2c3ccccc3nc3ccccc23)nn1 [Compound 12, 1-(1-(Acridin-9-yl)-1H-1,2,3-triazol-4-yl)methyl valproate]",cell growth inhibition (in words),"full NCI 60-cell panel; against all cancer cell lines, single dose of 10 μM",either low or complete absence of cell growth inhibition
COc1cccc2c1C(=O)c1c(O)c3c(c(O)c1C2=O)C[C@@](O)(C(=O)CO)C[C@@H]3O[C@H]1C[C@H](N)[C@H](O)[C@H](C)O1 [Doxorubicin],IC50,[2],2 µM
"Cc1cc(=O)[nH]c(=O)n1Cc1cn(-c2c3ccccc3nc3ccccc23)nn1 [Compound 8, 1-((1-(Acridin-9-yl)-1H-1,2,3-triazol-4-yl)methyl)-6-methylpyrimidine-2,4(1H,3H)-dione]",inhibition at 10 µM,LOX IMVI (melanoma),84.8%
same,%G1,MCF7 cell lines,24.4%
same,%G2/M,MCF7 cell lines,48.3%
same,%Pre-G1,MCF7 cell lines,24.4%
same,rise of annexin V-FITC positive apoptotic cells compared with vehicle control,DU-145 cells,sixfold
same,percent of annexin V-FITC positive apoptotic cells (UR + LR),DU-145 cells,10.2%
same,inhibition at 10 µM,full NCI 60-cell panel; [3],61 to 97%
same,inhibition at 10 µM,MCF7 (breast cancer),97.5%
same,increase of annexin V-FITC positive apoptotic cells compared with vehicle control,MCF-7 cells,10 fold
same,percentage of annexin V-FITC positive apoptotic cells (UR + LR),MCF-7 cells,20.3%
same,inhibition at 10 µM,IGROV1 (ovarian cancer),67%
same,inhibition at 10 µM,DU-145 (prostate cancer),84.3%
same,%G1,DU-145 cell lines,34.6%
same,%G2/M,DU-145 cell lines,39.6%
same,%Pre-G1,DU-145 cell lines,12.9%
same,inhibition at 10 µM,SR (leukemia),88.6%
